Reference: patent US6656921B1, “Use of zinc hyaluronate against peptic ulcer” (Richter Gedeon Vegyeszeti Gyar RT., priority 1997, dated 2003)

Legend:
[1] = system: platelet activating factor (PAF) induced gastric lesion; test: Inhibition of gastric damage induced by platelet activating factor (PAF); type: in vivo, rat; conditions: for Inhibition: 30 min before PAF; for Lesion score/stomach ± S.E.M.: 30 min before PAF infusion, score 0-3
Protocol: Male, RG-Wistar rats weighing between 200-250 g were used. Before the experiments animals were fasted for 24 hours but received water ad libitum. Experiments were carried out according to the technique similar to that described by Wallace and Whittle (1986). [Br.J.Pharmac., 89,415, (1986)]. Animals were anaesthetized by intraperitoneal administration of urethane at a dose of 1 g/kg in a volume of 10 ml/kg. Femoral vein was then prepared and cannulated for administration of ulcerogenic PAF. After the surgery PAF was infused intravenously at a rate of 0.1 ml/min for ten minutes at a dose of 200 ng/kg/min. Test compounds were given 30 minutes before the PAF challenge. One hour after the infusion of PAF animals were sacrificed by cervical dislocation; their stomachs were removed and opened along the greater curvature. The hemorrhagic erosions were evaluated by a zero to three scoring system.

[2] = system: indomethacin induced gastric lesion; test: Inhibition of indomethacin induced gastric lesion; type: in vivo, rat; conditions: for Inhibition: 30 min before indomethacin; for Lesion number/stomach ± S.E.M.: 30 min before indomethacin 40 mg/kg s.c.
Protocol: 2. Inhibition of Indomethacin Induced Gastric Lesion Female RG Wistar rats weighing between 120-150 g were used. Before the experiments animals were fasted for 24 hours but received water ad libitum. Test compounds were given orally, 30 minutes later the animals were treated subcutaneously with indomethacin at a dose of 40 mg/kg. Four hours after the irritating indomethacin administration the animals were killed by cervical dislocation. The stomachs were removed, opened along the greater curvature and the hemorrhagic lesions were counted on the glandular stomach.
ED50 value represents the dose which protects the stomach by 50 % from the damaging effect of indomethacin.

zinc hyaluronate [Zinc hyaluronate (M)]
Inhibition ([1]; 50 mg/kg p.o.): 27.3%
Lesion score/stomach ± S.E.M. ([1]; 50 mg/kg p.o.): 1.6 ± 0.4
Inhibition ([1]; 100 mg/kg p.o.): 40.9%
Lesion score/stomach ± S.E.M. ([1]; 100 mg/kg p.o.): 1.3 ± 0.2
Protection against ulcerogenic effect of PAF (in words) ([1]; rat, in vivo): strongly reduced the ulcerogenic effect of PAF
Inhibition ([2]; 1.0 mg/kg p.o.): 15.7%
Lesion number/stomach ± S.E.M. ([2]; 1.0 mg/kg p.o.): 15.6 ± 6.2
Inhibition ([2]; 10.0 mg/kg p.o.): 68.1%
Lesion number/stomach ± S.E.M. ([2]; 10.0 mg/kg p.o.): 5.9 ± 1.9
Inhibition ([2]; 100 mg/kg p.o.): 89.2%
Lesion number/stomach ± S.E.M. ([2]; 100 mg/kg p.o.): 2.0 ± 0.9
ED50 (dose protecting the stomach by 50% from indomethacin) ([2]; p.o.): 6.2 mg/kg
